Laboratory results taken from patent US7247438B1, “Methods of identifying agents which enhance caspase activity” (priority 1997, dated 2007).
Entries after “also recorded” stand apart in the source; their conditions may differ. Peptide text beside a SMILES is read from it. * marks the point of attachment. Cbz = O=C(OCc1ccccc1)*; CH2F = FC*

Tests used:
caspase-1 = biological target: T1, caspase-1 (Homo sapiens, UniProt P29466); settings: caspase-1 versus caspase-3; cited from earlier work
T1 sequence (P29466 120-297 limits assumed): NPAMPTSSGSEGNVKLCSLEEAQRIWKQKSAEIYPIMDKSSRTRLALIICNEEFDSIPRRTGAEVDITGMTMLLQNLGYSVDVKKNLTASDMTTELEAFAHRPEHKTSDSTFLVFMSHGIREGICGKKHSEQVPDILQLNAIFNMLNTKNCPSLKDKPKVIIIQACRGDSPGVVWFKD
T1 sequence (P29466 317-404 limits assumed): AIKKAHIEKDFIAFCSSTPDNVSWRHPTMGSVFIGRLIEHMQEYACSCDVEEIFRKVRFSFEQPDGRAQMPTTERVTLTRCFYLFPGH

[1] = test system: CD4+ CD8+ DP thymocytes in FTOC of C57BL/6 mice; test: glucocorticoid (dexamethasone)-induced DP thymocyte death in FTOC, FACS analysis; type: cell-based, mouse
[2] = test system: thymic caspase (~17 kD subunit); test: Western blot of thymic lysates: binding of biotinylated substrate to activated thymic caspase and competition; design: species or system mouse; settings: for blocking of biotin-DEVDamk binding to the antigen-activated caspase: pretreatment of thymic lysates with excess (100-fold molar, FIG. 2D) of inhibitor
[3] = biological target: T2, recombinant Mch2a (caspase-6) (Homo sapiens, UniProt P55212); test: Western blot: binding of biotinylated substrate to recombinant Mch2a; settings: FIG. 2B; 15 minutes with 2 mM biotin-DEVDamk
T2 construct: made in house
T2 sequence (P55212 24-179 limits assumed): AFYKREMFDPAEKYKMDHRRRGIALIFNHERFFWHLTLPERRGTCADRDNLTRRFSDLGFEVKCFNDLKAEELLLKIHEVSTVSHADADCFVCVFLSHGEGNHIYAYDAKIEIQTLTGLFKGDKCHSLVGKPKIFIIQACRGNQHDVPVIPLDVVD
T2 sequence (P55212 194-293 limits assumed): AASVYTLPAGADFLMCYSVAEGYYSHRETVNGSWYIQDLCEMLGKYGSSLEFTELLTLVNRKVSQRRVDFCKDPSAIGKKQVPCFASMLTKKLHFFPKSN

[4] = biological target: T3, recombinant Yama/caspase-3 (Homo sapiens, UniProt P42574); test: Western blot: binding of biotinylated substrate to recombinant Yama; settings: FIG. 2B; 15 minutes with 2 mM biotin-DEVDamk
T3 construct: made in house
T3 sequence (P42574 29-175 limits assumed): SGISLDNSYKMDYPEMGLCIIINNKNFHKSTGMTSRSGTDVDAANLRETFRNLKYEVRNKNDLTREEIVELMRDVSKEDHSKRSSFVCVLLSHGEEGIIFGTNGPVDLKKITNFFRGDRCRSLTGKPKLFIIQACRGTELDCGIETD
T3 sequence (P42574 176-277 limits assumed): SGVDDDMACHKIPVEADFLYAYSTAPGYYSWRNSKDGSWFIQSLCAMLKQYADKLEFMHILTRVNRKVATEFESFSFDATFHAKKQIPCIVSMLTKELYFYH

[5] = test system: activated thymic caspase in N15 tg RAG-2−/− H-2b FTOC; type: cell-based, mouse; settings: for effect of pretreatment on VSV8-induced caspase activation (biotin-DEVDamk staining): FTOC, inhibitor pretreatment, then VSV8 4 hours
[6] = test system: CD4+ CD8+ DP thymocytes in FTOC of C57BL/6 mice; test: anti-CD3ε mAb (2C11)-induced deletion of DP thymocytes in FTOC, FACS analysis; type: cell-based, mouse; design: effect on anti-CD3ε (2C11) mAb-induced deletion of DP thymocytes: dose or concentration left out as unconfirmed
[7] = test system: DP thymocytes in FTOC of N15 TCR tg RAG-2−/− H-2b mice; type: cell-based, mouse; settings: for effect on antigen (VSV8)-induced depletion of DP thymocytes: N15 FTOC, 2 hours with 100 μM inhibitor followed by 18 hours with 10 μM VSV8
[8] = test system: thymocytes in N15 tg RAG-2−/− H-2b FTOC; type: cell-based, mouse
[9] = test system: Rat thymocytes in suspension; settings: cited from earlier work
[10] = test system: Drosophila Schneider cells; settings: added to Drosophila Schneider cells; cited from earlier work
thymic caspase = test: caspase activation in thymic lysates of adult mice after tail vein peptide injection (Western blot); settings: mouse, in vivo
[11] = test system: activated thymic caspase in adult N15 tg RAG-2−/− H-2b mice; settings: mouse, in vivo
[12] = test system: thymocytes in non-tg RAG-2−/− FTOC; type: cell-based, mouse

## CC(=O)N[C@@H](Cc1ccc(O)cc1)C(=O)N[C@H](C(=O)N[C@@H](C)C(=O)N[C@H](C=O)CC(=O)O)C(C)C [Ac-YVAD-CHO]
caspase-1
  fold lower concentration to inhibit caspase-1 than required to inhibit caspase-3: ~10,000 fold

## C[C@@H]1C[C@H]2[C@@H]3CCC4=CC(=O)C=C[C@]4(C)[C@@]3(F)[C@@H](O)C[C@]2(C)[C@@]1(O)C(=O)CO [Dexamethasone]
[1]; FTOC, control 74%
  percentage of DP thymocytes: 19%

## Cc1cccc(C)c1C(=O)OCC(=O)C(CC(=O)O)NC(=O)[C@@H](NC(=O)[C@H](CCC(=O)O)NC(=O)[C@H](CC(=O)O)NC(=O)CCCC[C@@H]1SC[C@@H]2NC(=O)N[C@@H]21)C(C)C (some centres unmarked) [biotin-DEVDamk, N-(Biotinylaspartylglutamylvalinyl)aspartic acid [(2,6-Dimethylbenzoyl)oxy]methyl Ketone]
[2]
  detection of / affinity for the activated thymic caspase by biotinylated substrate: highest affinity
[3]
  binding of biotinylated substrate to recombinant Mch2a (caspase-6): bind
[4]
  binding of biotinylated substrate to recombinant Yama/caspase-3: bind

## COC(=O)C[C@H](NC(=O)[C@H](C)NC(=O)[C@@H](NC(=O)OCc1ccccc1)C(C)C)C(=O)CF [zVADfmk, N-benzyloxycarbonyl-Val-Ala-Asp-fluoromethylketone, b-methyl ester] (Cbz-Val-Ala-Asp(OMe)-CH2F)
[2]
  blocking of biotin-DEVDamk binding to the antigen-activated caspase: blocks binding; also recorded: prevents binding
[5]
  effect of pretreatment on VSV8-induced caspase activation (biotin-DEVDamk staining): blocked
[6]; 2-hour preincubation, harvested 18 hours later
  effect on anti-CD3ε (2C11) mAb-induced deletion of DP thymocytes: inhibited; also recorded: blocked
[6]; FTOC C57BL/6, no 2C11
  effect of agent alone on percentage of DP thymocytes in FTOC: does not alter
[7]
  effect on antigen (VSV8)-induced depletion of DP thymocytes: completely blocks; also recorded: blocked; also recorded: blocks depletion
[8]
  number of TdT (TUNEL) positive apoptotic cells in histological sections (in words): reduces the number of TdT+ cells to that of the control; also recorded: blocked
[9]
  effect on glucocorticoid-induced death: blocked
[10]
  effect on apoptosis induced by expression of REAPER protein: blocks the induction of apoptosis
[1]; 2-hour pretreatment with 100 μM zVADfmk
  effect on dexamethasone (glucocorticoid)-induced death/deletion of DP thymocytes: protects; also recorded: blocked

## COC(=O)CC(NC(=O)C(C)NC(=O)C(NC(=O)OCc1ccccc1)C(C)C)C(C)=O (centres unmarked) [zVADmk, N-(Z-Valinylalanyl)aspartic acid methyl ketone, b-methyl ester]
[2]
  blocking of biotin-DEVDamk binding to the antigen-activated caspase: does not block
[5]
  effect of pretreatment on VSV8-induced caspase activation (biotin-DEVDamk staining): not
[7]
  effect on antigen (VSV8)-induced depletion of DP thymocytes: has no effect; also recorded: fails to block
[8]
  number of TdT (TUNEL) positive apoptotic cells in histological sections (in words): levels of TdT positive cells similar to cultures treated with VSV8 alone; also recorded: no effect

## FAPGNYPAL [SEV9]
[7]
  depletion/death of DP thymocytes induced by peptide (in words): does not result in thymocyte death

## RGYVYQGL [VSV8]
Thymic caspase
  time to induction of an active caspase after tail vein injection: ≤ 2 h
[5]
  biotin-DEVDamk staining (activation of thymic caspase) in FTOC sections: widespread biotin-DEVDamk staining throughout the cortex
[11]
  biotin-DEVDamk staining of thymic sections: widespread biotin-DEVDamk staining
[12]
  TdT positive cells mm2, non-tg: 9 mm2
[7]
  depletion/death of DP thymocytes induced by peptide (in words): massive depletion
  percent CD4+ CD8+ DP thymocytes: 21
[8]
  TdT positive cells mm2, N15tg #1: 429 mm2
  TdT positive cells mm2, N15tg #2: 456 mm2
  TdT positive cells mm2, N15tg #3: 441 mm2
  number of TdT (TUNEL) positive apoptotic cells in histological sections (in words): obvious increase
